Experimental data as given in patent publication US20230277483A1, “COMPOSITIONS AND METHODS TO TREAT INFLAMMATION” (University of Iowa Research Foundation, priority 2022, published 2023).

Experiments:
[1] = system: human monocyte-derived macrophages (MDM); assay: MTT toxicity assay; format: cell-based; conditions: HCA from 0.1 to 50 μM; 24 and 48 hours
Method: HCA promotes proliferation of health related bacteria and inhibits proliferation and attachment of periodontopathogenic bacteria. Promoting the growth of health-related commensal bacteria while inhibiting proliferation and attachment of pathogenic bacteria may be effective at preventing or treating periodontal inflammation. To determine if HCA has an effect on the growth properties of commensal bacteria and periodontopathogens, HCA at different concentrations was added to aerobic culture of S. mitis and S. oralis and anaerobic culture of T. denticola as described in our published manuscript (see detail in Shu et al, Journal of Periodontology, 2022). FIGS. 18A-C summarize the functions of HCA on the proliferation of specific commensal and pathogenic bacteria. […] Furthermore, the function of HCA on P. gingivalis attachment, a key parameter of adhesion and biofilm formation by periodontopathogenic bacteria, was investigated. […] The composition of the microbiomes was determined by amplifying the V3 and V4 regions of the 16S rRNA genes. Raw data in FASTQ format were filtered and denoised using DADA2 (Divisive Amplicon Denoising Algorithm) to generate amplicon sequence variants (ASV) or operational taxonomical units (OTUs) that were then analyzed by QIIME2.

[2] = system: DIO-mice (C57BL/6J on 60% kCal high-fat diet); assay: Diet-induced obesity (DIO) mouse model, IP HCA; format: in vivo
Method: Animal care and experimental procedures were performed with approval from the University of Iowa's Institutional Animal Care and Use Committee. Animals received humane care in compliance with the Guide for the Care and Use of Laboratory Animals (National Academies Press, 2011) and with the Principles of Laboratory Animal Care formulated by the National Society for Medical Research. C57BL/6J mice (The Jackson Laboratory, 000664) were kept on a 12-hour light/dark cycle. Mice used to generate the DIO model were placed on a 60% kCal high-fat diet (HFD, Research Diets, D12492) immediately after weaning (i.e., at 3 weeks of age). After 16 weeks, lean and DIO-mice were intraperitoneally (IP) injected with 0.5 uM HCA or PBS control every other day for three weeks. Body weight was measured weekly. All tissues were harvested, frozen in liquid nitrogen, and kept at −80° C. until processed.
Total RNA was isolated using TRIzol reagent (Invitrogen, 15-596-018) and reverse transcribed into cDNA using the iScript cDNA synthesis kit (Bio-Rad, 1708890). Quantitative real-time RT-PCR analysis was performed using SYBR Green (Invitrogen, KCQS00).
Proteins were extracted from cells or tissues and subjected to SDS-polyacrylamide gel electrophoresis, as previously described (Yang et al., 2015). Membranes were incubated with anti-p-AKT (Ser473, Cell Signaling, 9271); anti-AKT1 (H-136, Santa Cruz, sc-8312) or anti-ACTB (H-300, Santa Cruz, sc-10731) at 1:1000 and then incubated with the appropriate secondary antibody conjugated with horseradish peroxidase (1:5000, Santa Cruz, sc-2005 or 1:5000, Cell Signaling Technology, 7074S). Signal was detected using the ChemiDoc Touch Imaging System (Bio-Rad), and densitometric analyses of western blot images were performed using Image Lab software (Bio-Rad).
For immunohistochemistry, tissues were fixed with 4% PFA and sectioned at 5 μm thick, followed by deparaffinization and rehydration processes. Tissue sections were stained using H&E. The images were observed under a Nikon microscope (10×).
Blood samples were centrifuged (4° C., 5000 g, 30 min) to obtain serum. Ten microliters of serum per sample were required for each index analysis. Serum alanine aminotransferase (ALT) and aspartate aminotransferase (AST) were measured by commercial kits. Serum IL-1β, IL-6 and free fatty acid (FFA) content were measured by ELISA (Il-1beta, Biolegend, Cat No. 432604; Il6) or a FFA fluorometric kit (Cayman Chemical, No. 700310), respectively, and then normalized to total protein (BCA).
Whole-body energy expenditure and body composition: Respiratory exchange ratio (RER) and locomotor activity were monitored using a Comprehensive Lab Animal Monitoring System (CLAMS, Columbus Instruments) at the Fraternal Order of Eagles Metabolic Phenotypic Core. Body composition was measured by using Bruker Minispecs (LF50).
Animals were fasted for 6 hours prior to ITT. Insulin tolerance was tested by measuring glucose concentration at different time points after intraperitoneal (IP) insulin injection (0.5 U/kg body weight; Humulin R) (Qian et al., 2018).

Structure (SMILES): O=C(O)CCCCCO [HCA, 6-hydroxycaproic acid]
- toxicity (MTT assay) [1]: No toxicity
- liver expression of Atg1 and Cd36 ([2]; HCA vs HFD alone): increased expression
- liver expression of Hsl ([2]; HCA vs HFD alone): significantly reduced
- Serum free fatty acid (FFA) content ([2]; HCA vs HFD controls): reduced circulating levels
- fasting glucose ([2]; HFD-fed, HCA-treated): HFD-mediated effects were reduced
- pAKT in eWAT (insulin signaling) ([2]; HFD-fed, HCA-treated): increased pAKT
- insulin tolerance (ITT) ([2]; HFD-fed, HCA-treated, insulin 0.5 U/kg IP): HFD-mediated effects were reduced
- lean mass ([2]; HFD, 0.5 uM HCA IP every other day for three weeks): increased
- BW gain ([2]; HFD, 0.5 uM HCA IP every other day for three weeks, vs HFD group): significantly reduced
- eWAT RNA-seq: chemokine signaling and leukocyte migration ([2]; HFD, HCA): downregulated
- eWAT RNA-seq: fatty acid metabolism, oxidation and absorption, PPAR gamma and AMPK signaling ([2]; HFD, HCA): significantly increased
- liver Il1b transcript levels ([2]; HFD, HCA): significantly reduced
- serum IL-6, IL-1β, and leptin ([2]; HFD, HCA): reduced
- eWAT Adipoq and Ppargamma levels ([2]; HFD, HCA-treated): levels increased
- eWAT mRNA expression of Il6, Nos2 and Lep ([2]; HFD, HCA-treated): significantly reduced
- serum ALT levels ([2]; HFD, HCA-treated): reduced
- morphology of liver, iWAT and eWAT (H&E) ([2]; HFD, HCA-treated vs HFD alone): showed improvement
- activity (locomotor) ([2]; HFD, HCA-treated, CLAMS): increased activity
- respiratory exchange ratio (RER) ([2]; HFD, HCA-treated, CLAMS): shift in respiratory exchange ratio (RER) towards increased carbohydrate metabolism
- eWAT Cd36 and Gpr81 ([2]; compared to HFD controls): induced
- GPR137B, GPR176, GPR65, GPR85, and FABP7 in WAT (mRNA-seq) ([2]; obese mice treated with HCA): upregulation
- PPARγ in white adipose tissues (WAT) ([2]; obese mice, systemic administration of HCA): upregulation
